{
  "source": "PubChem BioAssay AID2060907",
  "about": "(Molecular Pharmacology Branch, DTP, NCI, 2025);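 also: spheroids exposed to compound for 7 days before readout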;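 as to viability, T/C: 100% = DMSO vehicle control luminescence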",
  "test_system": "388556-164-R-J1-PDC complex spheroid viability",
  "assay": "Anticancer human tumor 388556-164-R-J1-PDC patient-derived colon adenocarcinoma cell line growth inhibition [RAS]",
  "settings": "for IC50: curve of first compound; for viability, T/C: stronger effect = lower value",
  "source_text": "RAS pathway inhibitors in Combinations in Complex Spheroids\nA high-throughput screen of multi-cell type tumor spheroids was designed to identify active combinations of RAS pathway inhibitors and targeted small molecules. Complex spheroids include a stromal component modeled by human endothelial cells (HUVEC) and fibroblasts modeled by human mesenchymal stem cells (MSCs). The concentration ranges selected for each drug and investigational agent were based upon clinically achievable concentrations if the clinical Cmax of the agent was known.\nCompounds. The drugs and investigational agents: abemaciclib (NSC768073), cobimetinib (NSC768068), divarasib (GDC6063, NSC841802), docetaxel (NSC628503), GDC-1971 (RLY-1971, NSC841576), gemcitabine (NSC613327), inavolisib (NSC800729), ipatasertib (NSC767898), KB-0742 (NSC834161), MRTX-1133 (NSC836407), osimertinib (NSC779217), RMC-4630 (NSC839698), RMC-6236 (NSC851965), RMC-6291 (NSC852671), Ro-3306 (NSC812927), sapanisertib (NSC764658), SN-38 (NSC673596), staurosporine (NSC755774), SY5609 (NSC837396), and tovorafenib (DAY101, NSC766906), were obtained from the National Cancer Institute (NCI) Developmental Therapeutics Program Chemical Repository. The FDA-approved anticancer drug set is available from the NCI Developmental Therapeutics Program. […] The stock solutions were prepared in dimethyl sulfoxide (DMSO, Sigma-Aldrich, St. Louis, MO, cat. D2650) at 800-fold the tested concentration and stored at -70 degrees C prior to their use. All drugs and investigational agents were tested over a range starting from a high concentration at or near the clinical Cmax and decreasing in half-log increments. If the clinical Cmax for an agent had not been determined, the highest concentration tested was 10 microM.\nCell Culture. All cells were maintained in an incubator at 37 degrees C and 5% CO2 with 95% humidity. The PDC lines were cultured according to standard operating procedures established by the NCI PDMR. All PDCs were thawed and cultured in Matrigel-coated flasks prepared with a working solution of 1X Ham's F-12 nutrient mix, without supplementation (Invitrogen, Waltham, MA, cat. 11765054), 100 U/mL penicillin-streptomycin (Invitrogen, cat. 15140122), and 2.5% Matrigel (Corning Inc., Corning, NY, cat. 354248) for the first three passages. The 362531-283-R-J2-PDC and 782815-120-R-J1-PDC lines were cultured in 6C/Colon 1B media, which includes advanced DMEM/F-12 (Thermo Fisher Scientific, cat. 12634028), 10 mM HEPES (Thermo Fisher Scientific, cat. 15630080), 1X GlutaMAX supplement (Thermo Fisher Scientific, cat. 35050061), 0.1 mg/mL primocin (InvivoGen, San Diego, CA, cat. ant-pm-2), 10% defined fetal bovine serum, heat inactivated (HyClone Laboratories Inc., Logan, UT, cat. SH30070.03HI), 50% L-WRN conditioned media (ATCC, cat. CRL-3276), 1.25 mM N-Acetyl-L-cysteine (Sigma-Aldrich, cat. A9165), 10 mM nicotinamide (Sigma-Aldrich, cat. N0636), 1X B-27 supplement (Thermo Fisher Scientific, cat. 17504044), 1X N-2 supplement (Thermo Fisher Scientific, cat. 17502048), 50 ng/mL human EGF (Thermo Fisher Scientific, cat. PHG0311), and 10 microM Y-27632 dihydrochloride (Tocris Bioscience, cat. 1254). The K12877-001-R-J1-PDC line was cultured in 6I media, which includes all 6C/Colon 1B media plus 10 ng/mL human FGF-10 (PeproTech, cat. 100-26), 1 ng/mL human FGF-2 (PeproTech, cat. 100-18B), 1 µM prostaglandin E2 (Tocris Bioscience, cat. 2296), […] hydrocortisone (Sigma-Aldrich, cat. H4001), and […] bovine insulin (Sigma-Aldrich, cat. I6634). The K86415-001-R-J1-PDC line was cultured in 6D media, which includes all 6C/Colon 1B media components minus the L-WRN conditioned media. The 485176-168-R4-J1-PDC was cultured in PANC media, which includes all 6C/Colon 1B media plus 100 ng/mL human FGF-10 (PeproTech, cat. 100-26), 500 nM SB-431542 (Selleckchem, cat. S1067), and 10 nM gastrin (Tocris Bioscience, cat. 3006). […]",
  "data": [
    {"smiles": "O=C(c1ccc(F)c(F)c1Nc1ccc(I)cc1F)N1CC(O)([C@@H]2CCCCN2)C1", "note": "+ C=CC(=O)N1CCN(c2nc(OCC3CCCN3C)nc3c(F)c(-c4nc(N)cc(C)c4C(F)(F)F)c(Cl)cc23)C(C)C1", "values": [
      {"measurement": "IC50", "setting": "second compound 0.00316 µM", "value": 129, "unit": "nM"},
      {"measurement": "IC50", "setting": "second compound 0.01 µM", "value": 158, "unit": "nM"},
      {"measurement": "IC50", "setting": "second compound 0.0316 µM", "value": 159, "unit": "nM"},
      {"measurement": "IC50", "setting": "second compound 0.1 µM", "value": 191, "unit": "nM"},
      {"measurement": "IC50", "setting": "second compound 0.316 µM", "value": 150, "unit": "nM"},
      {"measurement": "IC50", "setting": "second compound 1 µM", "value": 144, "unit": "nM"},
      {"measurement": "viability, T/C", "setting": "second compound 0.00316 µM, first compound 0.00316 µM", "value": 97.8, "unit": "%"},
      {"measurement": "viability, T/C", "setting": "second compound 0.00316 µM, first compound 0.01 µM", "value": 90.8, "unit": "%"},
      {"measurement": "viability, T/C", "setting": "second compound 0.00316 µM, first compound 0.0316 µM", "value": 83.7, "unit": "%"},
      {"measurement": "viability, T/C", "setting": "second compound 0.00316 µM, first compound 0.1 µM", "value": 53.5, "unit": "%"},
      {"measurement": "viability, T/C", "setting": "second compound 0.00316 µM, first compound 0.316 µM", "value": 33.5, "unit": "%"},
      {"measurement": "viability, T/C", "setting": "second compound 0.00316 µM, first compound 1 µM", "value": 22.8, "unit": "%"},
      {"measurement": "viability, T/C", "setting": "second compound 0.01 µM, first compound 0.00316 µM", "value": 106, "unit": "%"},
      {"measurement": "viability, T/C", "setting": "second compound 0.01 µM, first compound 0.01 µM", "value": 90.3, "unit": "%"},
      {"measurement": "viability, T/C", "setting": "second compound 0.01 µM, first compound 0.0316 µM", "value": 78.2, "unit": "%"},
      {"measurement": "viability, T/C", "setting": "second compound 0.01 µM, first compound 0.1 µM", "value": 61.2, "unit": "%"},
      {"measurement": "viability, T/C", "setting": "second compound 0.01 µM, first compound 0.316 µM", "value": 34.5, "unit": "%"},
      {"measurement": "viability, T/C", "setting": "second compound 0.01 µM, first compound 1 µM", "value": 20.1, "unit": "%"},
      {"measurement": "viability, T/C", "setting": "second compound 0.0316 µM, first compound 0.00316 µM", "value": 92, "unit": "%"},
      {"measurement": "viability, T/C", "setting": "second compound 0.0316 µM, first compound 0.01 µM", "value": 94.4, "unit": "%"},
      {"measurement": "viability, T/C", "setting": "second compound 0.0316 µM, first compound 0.0316 µM", "value": 82.7, "unit": "%"},
      {"measurement": "viability, T/C", "setting": "second compound 0.0316 µM, first compound 0.1 µM", "value": 59.8, "unit": "%"},
      {"measurement": "viability, T/C", "setting": "second compound 0.0316 µM, first compound 0.316 µM", "value": 35, "unit": "%"},
      {"measurement": "viability, T/C", "setting": "second compound 0.0316 µM, first compound 1 µM", "value": 18.9, "unit": "%"},
      {"measurement": "viability, T/C", "setting": "second compound 0.1 µM, first compound 0.00316 µM", "value": 91.6, "unit": "%"},
      {"measurement": "viability, T/C", "setting": "second compound 0.1 µM, first compound 0.01 µM", "value": 96, "unit": "%"},
      {"measurement": "viability, T/C", "setting": "second compound 0.1 µM, first compound 0.0316 µM", "value": 86.5, "unit": "%"},
      {"measurement": "viability, T/C", "setting": "second compound 0.1 µM, first compound 0.1 µM", "value": 65.4, "unit": "%"},
      {"measurement": "viability, T/C", "setting": "second compound 0.1 µM, first compound 0.316 µM", "value": 38.1, "unit": "%"},
      {"measurement": "viability, T/C", "setting": "second compound 0.1 µM, first compound 1 µM", "value": 23.3, "unit": "%"},
      {"measurement": "viability, T/C", "setting": "second compound 0.316 µM, first compound 0.00316 µM", "value": 95.6, "unit": "%"},
      {"measurement": "viability, T/C", "setting": "second compound 0.316 µM, first compound 0.01 µM", "value": 97, "unit": "%"},
      {"measurement": "viability, T/C", "setting": "second compound 0.316 µM, first compound 0.0316 µM", "value": 84.5, "unit": "%"},
      {"measurement": "viability, T/C", "setting": "second compound 0.316 µM, first compound 0.1 µM", "value": 58.6, "unit": "%"},
      {"measurement": "viability, T/C", "setting": "second compound 0.316 µM, first compound 0.316 µM", "value": 34, "unit": "%"},
      {"measurement": "viability, T/C", "setting": "second compound 0.316 µM, first compound 1 µM", "value": 21.6, "unit": "%"},
      {"measurement": "viability, T/C", "setting": "second compound 1 µM, first compound 0.00316 µM", "value": 97.3, "unit": "%"},
      {"measurement": "viability, T/C", "setting": "second compound 1 µM, first compound 0.01 µM", "value": 96.8, "unit": "%"},
      {"measurement": "viability, T/C", "setting": "second compound 1 µM, first compound 0.0316 µM", "value": 86.1, "unit": "%"},
      {"measurement": "viability, T/C", "setting": "second compound 1 µM, first compound 0.1 µM", "value": 61.5, "unit": "%"},
      {"measurement": "viability, T/C", "setting": "second compound 1 µM, first compound 0.316 µM", "value": 26.7, "unit": "%"},
      {"measurement": "viability, T/C", "setting": "second compound 1 µM, first compound 1 µM", "value": 18.9, "unit": "%"}
    ]}
  ]
}
